molecular target: T1, Melanin-concentrating hormone receptor 1 (Homo sapiens, UniProt Q99705); test: Inhibitory concentration against human MCH-R1-stimulated [Ca2+] influx
T1 sequence (Q99705 whole entry): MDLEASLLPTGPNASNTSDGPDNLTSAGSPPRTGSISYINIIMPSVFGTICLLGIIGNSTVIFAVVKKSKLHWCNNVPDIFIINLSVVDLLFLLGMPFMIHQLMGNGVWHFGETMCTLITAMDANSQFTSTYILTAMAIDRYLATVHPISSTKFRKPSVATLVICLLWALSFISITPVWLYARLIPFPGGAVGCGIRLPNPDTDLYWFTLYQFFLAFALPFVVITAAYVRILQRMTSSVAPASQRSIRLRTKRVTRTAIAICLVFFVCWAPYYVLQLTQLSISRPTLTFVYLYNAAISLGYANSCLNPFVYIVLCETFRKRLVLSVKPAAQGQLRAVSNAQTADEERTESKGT

IC50 [nM]	Compound
166	CNC1CCN(c2ccc(NC(=O)c3ccc(-c4ccccc4)cc3)cc2)C1 (stereo unspecified)

molecular target: T1, Melanin-concentrating hormone receptor 1; test: Binding affinity towards human MCH-R1 evaluated by its ability to displace radioligand [125I]Tyr13]-MCH

Compound	Ki [nM]
CN(C)C1CCN(c2ccc(NC(=O)c3ccc(-n4ccnc4)cc3)cc2)C1 (stereo unspecified)	> 10000
CN(C(=O)OC(C)(C)C)C1CCN(c2ccc(NC(=O)c3ccc(-c4ccccc4)cc3)cc2)C1 (stereo unspecified)	> 10000
COc1ccc(-c2ccc(C(=O)Nc3ccc(N4CCC(N(C)C)C4)cc3)cn2)cc1 (stereo unspecified)	16
CN(C)C1CCN(c2ccc(NC(=O)c3ccc(N4CCCCC4)nc3)cc2)C1 (stereo unspecified)	2400
CCN1CCN(c2ccc(C(=O)Nc3ccc(N4CCC(N(C)C)C4)cc3)cn2)CC1 (stereo unspecified)	> 10000
CN(Cc1ccccc1)C1CCN(c2ccc(NC(=O)c3ccc(-c4ccccc4)cc3)cc2)C1 (stereo unspecified)	31
CN(C)C1CCN(c2ccc(NC(=O)NCCCc3ccccc3)cc2)C1 (stereo unspecified)	43
CN(C)C1CCN(c2ccc(NC(=O)c3ccc(-c4cccs4)cc3)cc2)C1 (stereo unspecified)	34
CN(C)C1CCN(c2ccc(NC(=O)c3ccc4c(c3)C(=O)c3ccccc3-4)cc2)C1 (stereo unspecified)	> 10000
CN(C)C1CCN(c2ccc(NC(=O)c3ccc(-c4ccccc4)nc3)cc2)C1 (stereo unspecified)	110
CN(Cc1ccccn1)C1CCN(c2ccc(NC(=O)c3ccc(-c4ccccc4)cc3)cc2)C1 (stereo unspecified)	130
CN(C)C1CCN(c2ccc(NC(=O)c3ccc(Oc4ccccc4)cc3)cc2)C1 (stereo unspecified)	> 10000
CC(=O)N(C)C1CCN(c2ccc(NC(=O)c3ccc(-c4ccccc4)cc3)cc2)C1 (stereo unspecified)	3000
CN(C)C1CCN(c2ccc(NC(=O)c3ccc(-c4cnco4)cc3)cc2)C1 (stereo unspecified)	> 10000
CN(C)C1CCN(c2ccc(NC(=O)CCCC(=O)c3ccccc3)cc2)C1 (stereo unspecified)	250
CN(C)C1CCN(c2ccc(NC(=O)Cc3ccc(-c4ccccc4)cc3)cc2)C1 (stereo unspecified)	4300
COc1ccc(CCCNC(=O)Nc2ccc(N3CCC(N(C)C)C3)cc2)cc1 (stereo unspecified)	52

The next compounds have a lower Ki than those just listed; values first:

Ki [nM]	Compound
14	CN(C)C1CCN(c2ccc(NC(=O)C3CCC(c4ccccc4)CC3)cc2)C1 (stereo unspecified)
13	CN(C)C1CCN(c2ccc(NC(=O)CCC(=O)c3ccc(Cl)cc3)cc2)C1 (stereo unspecified)
12	CN(C)C1CCN(c2ccc(NC(=O)C3CCC(c4ccc(Cl)cc4)CC3)cc2)C1 (stereo unspecified)
8.6	CN(CCCc1ccccc1)C1CCN(c2ccc(NC(=O)c3ccc(-c4ccccc4)cc3)cc2)C1 (stereo unspecified)
5.9	CCN(C)C1CCN(c2ccc(NC(=O)c3ccc(-c4ccccc4)cc3)cc2)C1 (stereo unspecified)
5.5	CN(CC1CC1)C1CCN(c2ccc(NC(=O)c3ccc(-c4ccccc4)cc3)cc2)C1 (stereo unspecified)
5.2	CN(C)C1CCN(c2ccc(NC(=O)c3ccc(-c4ccccc4)cc3)cc2)C1 (stereo unspecified)
3.1	CNC1CCN(c2ccc(NC(=O)c3ccc(-c4ccccc4)cc3)cc2)C1 (stereo unspecified)

Reference: ChEMBL document CHEMBL1142773, “1-(4-Amino-phenyl)-pyrrolidin-3-yl-amine and 6-(3-amino-pyrrolidin-1-yl)-pyridin-3-yl-amine derivatives as melanin-concentrating hormone receptor-1 antagonists” (Bioorg Med Chem Lett, 2005)
